This is an account of results in patent US11577063B2, “Soluble microneedle containing ingredient for controlling release of neurotransmitters” (LG HOUSEHOLD & HEALTH CARE LTD., priority 2015, dated 2023).

In data set [1] the target is SNARE complex (SNAP25, SynH3 and Vps proteins) (Homo sapiens, UniProt P60880+P63027+Q16623). The data set can be described thus: Inhibition of SNARE complex formation (SDS-PAGE). The data set is classed as biochemical. The conditions noted are these: FIG. 4; for ability of inhibiting SNARE complex formation compared with myricetin: at low concentrations; for inhibition of SNARE complex formation: polyphenol 1-50 ppm, room temperature 30 minutes, 12% SDS-PAGE. As to the method:
SDS-PAGE (sodium dodecyl sulfate-polyacrylamide gel electrophoresis) analysis was performed to investigate the inhibition of SNARE complex formation by polyphenols such as ampelopsin, kaempferol, myricetin, etc. It was investigated whether the SNARE complex formed when SNAP25, SynH3 and Vps proteins are mixed at a molar ratio of 1:1:1 was inhibited by the addition of the polyphenol compound at a concentration of 1-50 ppm. After adding the respective proteins dropwise into a 1-mL tube, the polyphenol compound was added and reaction was conducted at room temperature for 30 minutes. Then, it was investigated whether the SNARE complex was formed by electrophoresing on 12% SDS-PAGE.

Data set [2] in a line: Maximum content of ampelopsin in cosmetic composition or microneedle. The data set is classed as physicochemical. As to the method: When ampelopsin is prepared into a cosmetic composition, only less than 0.5% (based on 5% PEG-400 and 70% water) of ampelopsin can be contained in the cosmetic composition. In contrast, a microneedle prepared by the method according to the present disclosure may contain ampelopsin up to 5% based on the dry weight of the microneedle. Accordingly, a product containing the polyphenol at high concentration can be prepared.

For data set [3], the system named is C2C12 cells co-cultured with neuroblasts. The data set can be described thus: Inhibition of muscle contraction by polyphenols, C2C12 cells co-cultured with neuroblasts. The conditions noted are these: FIG. 7; for number of contractions of the C2C12 cells: 50 ppm polyphenol, 2 hours incubation, contractions counted for 30 seconds; for effect of inhibiting neurotransmitter release compared with myricetin: 50 ppm, 2 hours. The data set is classed as cell-based. On the procedure: C2C12 cells were cultured in DMEM medium supplemented with 10% fetal calf serum and 1% antibiotic on a plate. Then, neuroblasts were co-cultured additionally on the same plate. When the C2C12 cells began contraction, the number of contractions by the C2C12 cells was measured for 30 seconds. Then, after completely removing the medium and washing 3 times with PBS, the cells were incubated for 2 hours after adding a calf serum-free medium and 50 ppm of the polyphenol compound. Then, the inhibition of muscle contraction was investigated by measuring the number of contractions of the C2C12 cells again for 30 seconds.

In data set [4] the test system is muscle cells and neuroblasts co-culture. The data set can be described thus: Inhibition of muscle contraction in vitro by magnesium gluconate, co-cultured muscle cells and neuroblasts. The conditions noted are these: various concentrations, observed 10 minutes after treatment; FIG. 9. The data set is classed as cell-based. On the procedure:
After co-culturing muscle cells and neuroblasts in vitro and treating with magnesium gluconate at various concentrations, decrease in the number of muscle contractions was observed 10 minutes later.

Chain of SNARE complex (SNAP25, SynH3 and Vps proteins) (P60880 whole entry): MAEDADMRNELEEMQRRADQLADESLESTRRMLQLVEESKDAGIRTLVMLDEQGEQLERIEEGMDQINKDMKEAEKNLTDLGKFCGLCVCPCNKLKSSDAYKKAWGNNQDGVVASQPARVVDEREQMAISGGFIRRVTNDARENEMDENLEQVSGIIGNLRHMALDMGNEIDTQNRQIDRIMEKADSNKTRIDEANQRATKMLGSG
Chain of SNARE complex (SNAP25, SynH3 and Vps proteins) (Q16623 191-266 limits assumed): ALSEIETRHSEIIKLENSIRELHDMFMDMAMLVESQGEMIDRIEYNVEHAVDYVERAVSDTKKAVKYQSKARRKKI
Chain of SNARE complex (SNAP25, SynH3 and Vps proteins) (P63027 1-94 limits assumed): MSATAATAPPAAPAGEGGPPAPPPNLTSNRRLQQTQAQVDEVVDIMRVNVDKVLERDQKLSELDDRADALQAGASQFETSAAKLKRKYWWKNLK

As to `O=C1c2c(O)cc(O)cc2O[C@H](c2cc(O)c(O)c(O)c2)[C@H]1O` [ampelopsin], in data set [1], the “ability of inhibiting SNARE complex formation compared with myricetin” value is reported as “better ability of inhibiting SNARE complex formation at low concentrations” and the “inhibition of SNARE complex formation” value is on record as “effectively inhibit the SNARE complex formation in a concentration-dependent manner”. For the same compound, the “ampelopsin content that can be contained in a cosmetic composition” value in data set [2] (based on 5% PEG-400 and 70% water) is “less than 0.5%”. Besides, in data set [2] (based on the dry weight of the microneedle), the “ampelopsin content that the microneedle may contain” value is listed as “up to 5%”. Also, in data set [3], the “number of contractions of the C2C12 cells” value (from here on “number … of the C2C12 cells”) is on record as “reduce the number of contractions of the C2C12 cells” and the “effect of inhibiting neurotransmitter release compared with myricetin” value is given as “relatively higher effect of inhibiting the release than myricetin”.

For the compound `O=c1c(O)c(-c2ccc(O)cc2)oc2cc(O)cc(O)c12` [kaempferol], in data set [1], the “ability of inhibiting SNARE complex formation compared with myricetin” value is “better ability of inhibiting SNARE complex formation at low concentrations” and the “inhibition of SNARE complex formation” value is “effectively inhibit the SNARE complex formation in a concentration-dependent manner”. Moreover, in data set [3], the “number … of the C2C12 cells” value was “reduce the number of contractions of the C2C12 cells” and the “effect of inhibiting neurotransmitter release compared with myricetin” value is “relatively higher effect of inhibiting the release than myricetin”.

Regarding `O=c1c(O)c(-c2cc(O)c(O)c(O)c2)oc2cc(O)cc(O)c12` [myricetin], the “inhibition of SNARE complex formation” value in data set [1] is recorded as “effectively inhibit the SNARE complex formation in a concentration-dependent manner”. The “number … of the C2C12 cells” value in data set [3] is “reduce the number of contractions of the C2C12 cells”.

For the compound magnesium gluconate, the “number of muscle contractions” value in data set [4] is given as “significant decrease in the number of muscle contractions as the concentration of magnesium gluconate was increased”.
